According to patent US20250339409A1, “USES OF PAN BET INHIBITORS” (VYNE THERAPEUTICS INC., priority 2021, published 2025):
Like-named read-outs stand apart in the source and are kept apart here.

Legend:
[1] = test system: IL4, IL13, IL31, CCL17, CCL26, CCL2 gene expression in Th2 stimulated human skin; assay: Th2 stimulated human skin explants, RT-qPCR of biomarkers; assay type: cell-based; conditions: for inhibition at 0.01 µM / inhibition at 0.04 µM / inhibition at 0.16 µM / inhibition at 0.63 µM / inhibition at 2.5 µM / inhibition at 10 µM: Homo sapiens; for inhibition at 2.5 µM: 2.50 μM
Source text: (§1) Human skin biopsy tissue was stimulated to induce a Th17 immuno-phenotype using a method derived from Feghali-Bostwick et al. Induction of a Th17 phenotype in human skin—a mimic of dermal inflammatory diseases, Methods and Protocols, 2, 45 (2019). The pharmacodynamic assay described therein involves a similar paradigm to elicit a Th2 response and is used to evaluate the therapeutic potential of the active compounds (e.g., BETi1; and
(§2) Freshly excised healthy human skin tissue from abdominoplasties is defatted, cleaned and sectioned into 7 mm biopsies. The biopsies are placed in Transwell® inserts with the epidermis apical and exposed to air and the dermis submerged in media in the basal chamber. The biopsies are pre-treated overnight at 37° C., 5% CO2 with different compounds and controls added to the media in the basal chamber.
(§3) The next day, contents of the basal chamber is replaced with fresh media containing the test compound (listed below) and a stimulation cocktail for either Th2 inflammation (proprietary of service provider cocktail) or Th17 inflammation (mix of antibodies against CD3, CD28, IL-4, IFNγ and recombinant IL-1β, IL-6, IL-21, TGF-β). The biopsies are incubated at 37° C., 5% CO2 for a further 24 hrs.
(§4) A list of all the treatments is provided below: • 1. Untreated control (for both stimulations) • 2. Th2 stimulated control • 3. Th17 stimulated control • 4. Th2+BETia at 0.01, 0.04, 0.16, 0.63, 2.50, and 10 μM • 5. Th2+BETi1 at 0.01, 0.04, 0.16, 0.63, 2.50, and 10 μM • 6. Th2+Ruxolitinib at 0.01, 0.04, 0.16, 0.63, 2.50, and 10 μM • 7. Th2+betamethasone valerate 210 μM (equivalent to 0.01%) • 8. Th17+BETia at 10 μM • 9. Th17+BETi1 at 10 μM • 10. Th17+Ruxolitinib at 10 μM • 11. Th17+betamethasone valerate 210 μM (equivalent to 0.01%)
(§5) After harvesting, the biopsies are cut in half, and one half is homogenized and used for RNA extraction by standard methods and inflammatory pathways is assessed by RT-qPCR. The ability of BETi1 or BETia to inhibit the activity of up to six biomarkers per stimulation is reported as percent activity calculated to stimulated control and fold change in gene expression calculated to untreated control with respect to Th2 (IL4, IL13, IL31, CCL17, CCL26, CCL2) and Th17 (CXCL10, IL17α, IL22, IL36γ, CCL20, SerpinB4). Statistical analysis is performed on data sets from all 3 donors combined and compares the percent inhibition of each biomarker by each treatment calculated to its respective vehicle.
(§6) qPCR values were calculated using the relative quantification approach outlined by Livak, et al (2001) (Section 9, Reference 2). The Ct values (threshold cycle) defined as the fractional cycle number at which the amount of amplified target reaches a fixed threshold, were normalised to the Ct value of an internal biomarker or ‘housekeeping gene’ (GAPDH). The higher limit of detection was set at a Ct value of 40, and any target having not reached Ct by 40 cycles was set to this value. The delta Ct values (dt(Ct)) refers to the Ct of the gene of interest minus the Ct of the internal biomarker. The ddt(Ct) is the dt(Ct) value of the gene minus the average dt(Ct) value of the untreated samples. The ddt(Ct) is converted to power by the equation; =power(2,dt(Ct)). Fold change was calculated as ratio of the power of the gene of interest divided by the average power of the untreated samples. This normalizes the untreated samplers to a value of 1. For the comparison of multiple skin donors, the stimulated samples were normalized to 100% maximum activity (such to normalize variability between different skin donors). Percent activity was calculated as the percent increase or decrease in stimulation compared to the stimulated samples set at 100% maximum activity. Percent change was calculated as: Inhibition=(100−(avg % activity/stimulated)*100). Statistical analysis was performed using One-way ANOVA with Dunnett's Multiple Comparisons (non parametric). […]

[2] = test system: CXCL10, IL17α, IL22, IL36γ, CCL20, SerpinB4 gene expression in Th17 stimulated human skin; assay: Th17 stimulated human skin explants, RT-qPCR of biomarkers; assay type: cell-based; conditions: calculated to Th17 stimulated control, three skin donors; for inhibition at 10 µM: Homo sapiens
Source text: as §1, §2, §3, §4, §5, §6

[3] = calculated to Th2 stimulated control, read-out: % Inhibition CCL17
[4] = calculated to Th2 stimulated control, read-out: % Inhibition CCL26
[5] = calculated to Th2 stimulated control, read-out: % Inhibition IL31
[6] = calculated to Th2 stimulated control, read-out: % inhibition CCL2
[7] = calculated to Th2 stimulated control, read-out: % inhibition IL4
[8] = calculated to Th2 stimulated control, read-out: % inhibition IL13
[9] = 210 μM, calculated to Th2 stimulated control

N#CC[C@H](C1CCCC1)n1cc(-c2ncnc3[nH]ccc23)cn1 [Ruxolitinib, reference compound]
inhibition at 0.01 µM [1, 3]: 23.2%
inhibition at 0.01 µM [1, 4]: 14%
inhibition at 0.01 µM [1, 5]: < 0%
inhibition at 0.01 µM [1, 6]: < 0%
inhibition at 0.01 µM [1, 7]: < 0%
inhibition at 0.01 µM [1, 8]: 2.3%
inhibition at 0.04 µM [1, 3]: 47.7%
inhibition at 0.04 µM [1, 4]: 35.3%
inhibition at 0.04 µM [1, 6]: < 0%
inhibition at 0.04 µM [1, 7]: 41.9%
inhibition at 0.16 µM [1, 5]: 57.9%
inhibition at 0.16 µM [1, 6]: < 0%
inhibition at 0.16 µM [1, 8]: 66.3%
inhibition at 0.63 µM [1, 3]: 34%
inhibition at 0.63 µM [1, 4]: 88.3%
inhibition at 0.63 µM [1, 5]: 55.9%
inhibition at 0.63 µM [1, 6]: < 0%
inhibition at 0.63 µM [1, 7]: 53.8%
inhibition at 0.63 µM [1, 8]: 48.8%
inhibition at 2.5 µM [1, 5]: < 0%
inhibition at 2.5 µM [1, 6]: 33%
inhibition at 2.5 µM [1, 7]: 20.5%
inhibition at 2.5 µM [1, 8]: 18.5%
inhibition at 10 µM ([1]; 10 μM, calculated to Th2 stimulated control, read-out: % Inhibition CCL17): 89.9%
inhibition at 10 µM ([1]; 10 μM, calculated to Th2 stimulated control, read-out: % Inhibition CCL26): 98.5%
inhibition at 10 µM ([1]; 10 μM, calculated to Th2 stimulated control, read-out: % Inhibition IL31): 29.9%
inhibition at 10 µM ([1]; 10 μM, calculated to Th2 stimulated control, read-out: % inhibition CCL2): ~57%
inhibition at 10 µM ([1]; 10 μM, calculated to Th2 stimulated control, read-out: % inhibition IL4): 48.5%
inhibition at 10 µM ([1]; 10 μM, calculated to Th2 stimulated control, read-out: % inhibition IL13): ~54%
highest percent inhibition of CCL17 gene expression ([1]; Th2-mediated stimulation, 10 μM): ca. 90%
inhibition at 10 µM ([2]; 10 μM, read-out: % inhibition CCL20): < 0%
inhibition at 10 µM ([2]; 10 μM, read-out: % inhibition CXCL10): ~99%
inhibition at 10 µM ([2]; 10 μM, read-out: % inhibition IL17α): 2.8%
inhibition at 10 µM ([2]; 10 μM, read-out: % inhibition IL22): ~99%
inhibition at 10 µM ([2]; 10 μM, read-out: % inhibition Serpinβ4): 92%

CCCCC(=O)O[C@]1(C(=O)CO)[C@@H](C)C[C@H]2[C@@H]3CCC4=CC(=O)C=C[C@]4(C)[C@@]3(F)[C@@H](O)C[C@@]21C [Betamethasone, betamethasone valerate, reference compound]
% Inhibition IL31 ([1]; 10 μM, calculated to Th2 stimulated control): 87.4%
% Inhibition CCL26 [1, 9]: 64.4%
% inhibition IL13 [1, 9]: 97.8%
% inhibition CCL20 ([2]; 10 μM): N/I (N/I indicates no inhibition.)
% inhibition IL17α ([2]; 210 μM): 73.1%
% inhibition IL36γ ([2]; 210 μM): 77.7%
